Assay results from patent publication US10222370B2, “Screening assay for choice of prebiotic to prevent/treat gastrointestinal and systemic diseases” (Rush University Medical Center, priority 2014, dated 2019).

Tests used:
Format in all cases: cell-based, human
T84/PBMC co-cultures = assay: Cytokine production in T84/PBMC co-cultures with apical TLR ligands (ELISA); conditions: T84/PBMC, 24 h, mean ± SEM
Experimental: (§1) The T84 cells are grown in DMEM/F-12 (1:1) supplemented with GlutaMAX®, 10% fetal bovine serum and […] penicillin/streptomycin. (T84 cells (human colorectal carcinoma cell line, ATCC® CCL-248™, Manassas, Va., USA). T84 cells were seeded in 12-well transwell insert filters (Coming Inc., NY, USA) and cultured in T84 cell medium for 3-4 weeks till co-culture with PBMC. Transepithelial electrical resistance (TER) was measured during culture, which generally increases to >1500 Ω×cm^2 and becomes stable after 3-4 weeks of culture. When TER was ≥2000 Ω×cm^2, T84 monolayers 14 were co-cultured with 1.5×10^6 PBMC 16 in the basolateral chamber.
(§2) The PBMC 16 for use in the co-cultures are isolated from 20 mL fresh blood from healthy controls (n=6) and subjects with food allergy (n=8) (Table 1). The average age of healthy controls was 36 (range 24-54) vs. 51 (range 26-74) for food allergic subjects (P>0.05). PBMC were isolated by density gradient centrifugation using lymphocyte separation medium according to manufacturer's protocol (Cellgro, Mediatec, Inc., Manassas, Va., USA). PBMC were collected in RPMI1640 supplemented with L-glutamine (Gibco), 2.5% fetal bovine serum, 1% penicillin/streptomycin and 1% sodium pyruvate (Sigma, St. Louis, Mo., USA) (PBMC medium) at 1×10^6 cell/mL.
(§3) T84/PBMC co-cultures were maintained in PBMC medium. PBMC were stimulated using CD3 and CD28 antibodies (clone OKT3 and CD28.2, 0.2 μg/mL; eBioscience, San Diego, Calif., USA) and simultaneously IEC were stimulated apically with Pam3CSK4, LPS or type C CpG oligonucleotide M362 (Invivogen, San Diego, Calif., USA) as previously described. Cultures were maintained at 37° C./5% CO2 for indicated time points.
(§4) Cytokine levels were measured by ELISA. IL-6, IL-8, IL-10, IL-13, IFN-γ and TNF-α were measured using the Ready-Set-Go!® ELISA kit from eBioscience according to manufacturer's protocol (eBioscience, Inc., San Diego, Calif., USA).
(§5) To evaluate whether epithelial TLR ligation modulates cytokine production by the PBMC, basolateral supernatants were collected 24 h after co-culture. Exposure of CD3/28-activated PBMC in the absence of IEC to TLR ligands served as a control to evaluate the contribution of IEC in modulating the cytokine production by PBMC. First we evaluated the production of IFN-γ and IL-13 as a reflection of a Th1 and Th2 type effector response (Table 3). No significant changes in the production of IFN-γ or IL-13 were observed, though IFN-γ production by the PBMC from food allergic subjects tended to be lower in T84/PBMC co-cultures (P=0.093). […] This was not observed when PBMC were stimulated with CpG DNA in absence of T84 cells (FIG. 7B).

[1] = test system: T84 monolayers co-cultured with CD3/28-activated PBMC; assay: T84/PBMC co-culture, barrier integrity by transepithelial electrical resistance (TER); conditions: apical exposure, 24 h and 48 h, vs medium control
Experimental: as §1, §2, §3
(§6) The barrier integrity of T84 monolayers was assessed by measuring the TER and paracellular permeability to 4 kDa FITC-dextran. In short, TER was measured using a dual electrode system designed for cell culture insert analysis (EVOM; World Precision Instruments, Sarasota, Fla.) prior to co-culture and at indicated time points during co-culture. Data is reported as percentage of the initial TER value measured before co-culture. For assessment of permeability, T84 monolayers were separated from PBMC and cultured in PBMC medium for 1 h. The monolayers were then apically exposed to 1 mg/mL 4 kDa FITC-dextran (Sigma) and basolateral supernatants were collected after 60 min. FITC-dextran was measured at excitation wavelength 485 nm and emission wavelength 520 nm. The 4 kDa FITC-dextran flux was expressed as pmol/(h×cm^2).
In some experiments, PBMC are stimulated using antibodies against CD3 and CD28 and T84 cell monolayers were simultaneously exposed to synthetic TLR ligands or fermentation product 12 (co-culture of stool samples without or with different prebiotics). SCFA content (acetate, propionate and butyrate) in the fermentation products (“Fermenta”) 12 was analyzed by HPLC. TER was measured at t=0 h, t=4 h, t=18 h and t=24 h to monitor changes in the barrier integrity of the T84 monolayers. Non-limiting example of prebiotics include commercially available inulin and fructose oligosaccharides (FOS) that promote production of Butyrate by intestinal bacteria, galactose oligosaccharides (GOS) that promote growth of bifidobacteria in the intestine or prebiotics like resistant starch, corn arbionoxylan that promotes propionate. Other prebiotics may also be used.

[2] = test system: T84 monolayers co-cultured with CD3/28-activated PBMC; assay: T84/PBMC co-culture, paracellular permeability to 4 kDa FITC-dextran; conditions: PBMC from healthy controls; 48 h co-culture; vs medium control
Experimental: as §1, §2
T84/PBMC co-cultures were maintained in PBMC medium. […]
as §6, with “For assessment of permeability, T84 monolayers were separated from PBMC and cultured in PBMC medium for 1 h. The monolayers were then apically exposed to 1 mg/mL 4 kDa FITC-dextran (Sigma) and basolateral supernatants were collected after 60 min.” left out

PBMC = assay: Cytokine production by CD3/28-activated PBMC in absence of T84 cells (ELISA); conditions: PBMC in absence of T84 cells, 24 h, mean ± SEM
Experimental: as §2, §3, §4, §5

Pam3CSK4
IL-6 (T84/PBMC co-cultures; FA (food allergy) PBMC): 5968 ± 1324 pg/mL | IFN-γ (T84/PBMC co-cultures; FA PBMC): 6533 ± 2125 pg/mL | IL-8 (T84/PBMC co-cultures; FA PBMC): 16854 ± 4954 pg/mL | IL-10 (T84/PBMC co-cultures; FA PBMC): 853.3 ± 212.9 pg/mL | IL-13 (T84/PBMC co-cultures; FA PBMC): 40.8 ± 12.1 pg/mL | TNF-α (T84/PBMC co-cultures; FA PBMC): 2251 ± 534 pg/mL | IL-6 (T84/PBMC co-cultures; HC (healthy control) PBMC): 7209 ± 1531 pg/mL | IFN-γ (T84/PBMC co-cultures; HC PBMC): 8614 ± 2455 pg/mL | IL-8 (T84/PBMC co-cultures; HC PBMC): 23052 ± 5527 pg/mL | IL-10 (T84/PBMC co-cultures; HC PBMC): 581.1 ± 110.7 pg/mL | IL-13 (T84/PBMC co-cultures; HC PBMC): 37.8 ± 9.2 pg/mL | TNF-α (T84/PBMC co-cultures; HC PBMC): 3073 ± 509 pg/mL | TER of T84 monolayers ([1]; PBMC from food allergic subjects): did not affect | TER of T84 monolayers ([1]; PBMC from healthy controls): did not affect | permeability of T84 monolayers to 4 kDa FITC-dextran [2]: increased the permeability | IFN-γ (PBMC; FA): 2824 ± 1163 pg/mL | IL-6 (PBMC; FA): 8073 ± 2055 pg/mL | IL-8 (PBMC; FA): 32940 ± 4869 pg/mL | IL-10 (PBMC; FA): 422.8 ± 98.6 pg/mL | IL-13 (PBMC; FA): 59.4 ± 15.2 pg/mL | TNF-α (PBMC; FA): 979.1 ± 244^ pg/mL | IFN-γ (PBMC; HC): 5663 ± 1768 pg/mL | IL-6 (PBMC; HC): 9472 ± 2153 pg/mL | IL-8 (PBMC; HC): 43737 ± 2856 pg/mL | IL-10 (PBMC; HC): 254.7 ± 135.4 pg/mL | IL-13 (PBMC; HC): 59.2 ± 17.0 pg/mL | TNF-α (PBMC; HC): 2206 ± 1155 pg/mL
